Results taken from publication PMC6715681, “A high-throughput screen to identify novel synthetic lethal compounds for the treatment of E-cadherin-deficient cells” (Scientific Reports, 2019).

How the values were obtained:
MCF10A CDH1^−/− cells [1] = experiment: xCELLigence real-time impedance assay (cell proliferation index); assay type: cell-based, human; details: for SL differential between the two cell lines (in words): xCELLigence real-time assay, SLEC-8 at 10 μM, SLEC-11 at 20 μM
Experimental: (§1) The xCELLigence real-time system quantifies electrical impedance as a measurement of cell viability which is expressed as the cell proliferation index. […] This was due to drug effects and briefly removing plates from the incubator for the addition of compounds and controls. Despite a slower adhesion time for MCF10A CDH1^−/−, consistent with our previous finding[3] the DMSO control treated cells had similar slopes of 0.17 and 0.15 for MCF10A WT and MCF10A CDH1^−/−, respectively.
(§2) Figure 10 Real-time xCELLigence data for lead compounds 8 and 11. (A) Timeline for the real-time cellular assay. Plates were seeded 4,000 cells/well as described in the Methods. (B,C) Data shown is a representative experiment of two biological replicates, performed in 96-well xCELLigence E-plates. Error bars are SD. Measurements were taken every 15 minutes. The cell proliferation index was calculated using the RTCA software. (B) Cells were treated with SLEC-8. (C) Cells were treated with SLEC-11.
(§3) Cells were seeded into each well of Corning’s black walled, clear bottom 96-well plates with a total volume of 100 μL per well. Edge wells were excluded. Both isogenic cell lines were seeded into the same plate to mitigate plate-to-plate variation. Plates for real-time analysis were transferred to the xCELLigence platform (ACEA Biosciences, USA) or the IncuCyte FLR imaging system (Essen BioScience, USA) as previously described.

MCF10A WT cells [2] = experiment: as above; assay type: cell-based, human
Experimental: as §1, §2, §3

MCF10A WT cells [3] = experiment: 11-point dose-response screen, high-content imaging (HCI) of Hoechst 33342 nuclei; assay type: cell-based; details: Homo sapiens, MCF-10A, 11-point screen
Experimental: (§4) The 11-point dose-response screen evaluated a concentration range from 0.02 µM to 20 µM for both isogenic cell lines in duplicate biological replicates (Fig. 4). One limitation to metabolism-based cellular assays is that a change in read out (fluorescence, luminescence or absorbance) may not necessarily be caused by cell death and could instead result from a cessation of proliferation due to senescence or inhibited mitochondrial respiration. For this reason, a direct measurement of cell counts using cellular imaging of nuclei stained with Hoechst 33342 was also included at the 11-point screening stage. For the CTB 11-point screen all plates had acceptable Z’ values above 0.4, with the second biological replicate having 70% above 0.6 (Fig. 4A). The Z’ values for the high-content imaging (HCI) 11-point screen plates were above 0.4 for MCF10A WT, except one plate from biological replicate two with 0.396 (Fig. 4B). However, for MCF10A CDH1^−/− HCI data, only four plates were above a Z’ of 0.4 and the mean Z’ was 0.32 compared to a mean of 0.51 for MCF10A WT. A further quality metric known as the strictly standardized mean difference (SSMD)[40] is a less conservative approach for QC and a cut-off of >3 is generally used. The mean SSMD value was 7.04 for MCF10A WT and 5.27 for MCF10A CDH1^−/− plates and indicates the MCF10A CDH1^−/− HCI data was acceptable[41]. There was a good correlation between the top hits from the HCI and CTB 11-point screening with an overlap of 31 / 40 for the top 40 compounds selected from the eventual hit selection strategies.
(§5) A direct measurement of cell counts using cellular imaging of nuclei was also included at the 11-point screening stage. Plates were fixed, washed and stained using an ELx405 Select deep well washer (BioTek). Media was first aspirated leaving 10 μL/well, then 4% w/v PFA was added and plates left for 15 minutes at RT. Plates were then washed twice with PBS-T, before aspirating all permeabilization buffer and adding Hoechst 33342 (1 μg/mL final) in PBS. Plates were then stored in the dark at 4 °C, until being imaged on a BD Pathway 855. Two 10x images per well were taken and cell counts enumerated using CellProfiler[48].

MCF10A CDH1^−/− cells [4] = experiment: as above; assay type: cell-based, human; details: 11-point screen; for EC50: Homo sapiens, MCF-10A, HCI
Experimental: as §4, §5

SMILES	SL differential between the two cell lines (in words) (MCF10A CDH1^−/− cells [1])	Decrease in cell proliferation index compared to DMSO (MCF10A CDH1^−/− cells [1]; xCELLigence, 10 μM, 60 hours post seeding) [fold]	Recovery of MCF10A WT cells (in words) (MCF10A WT cells [2]; 10 μM, by 60 hours post seeding)	EC50 (MCF10A WT cells [3]) [µM]	EC50 ratio between MCF10A WT and MCF10A CDH1^−/− cells (MCF10A CDH1^−/− cells [4]; value corresponds to the HCI EC50s of Fig. 5) [fold change]	EC50 (MCF10A CDH1^−/− cells [4]) [µM]	Difference in cell proliferation index between compound and DMSO (maximum) (MCF10A CDH1^−/− cells [1]; xCELLigence, 20 μM, 62 hours post seeding) [fold]	Difference in cell proliferation index to DMSO in MCF10A WT cells (in words) (MCF10A WT cells [2]; 20 μM, 62 hours post seeding)
CC(O)CNCc1ccc(OCc2ccc(Cl)cc2Cl)cc1 (centres unmarked) [SLEC-8]	significant SL differential	2.7	able to fully recover	10.2	5.03	2.02	–	–
COc1ccc2nc(C)cc(NCc3ccc(F)cc3)c2c1 [SLEC-11, N-(4-Fluorobenzyl)-6-methoxy-2-methylquinolin-4-amine]	significant SL differential	–	–	14.6	–	7.34	7.9	no difference
